This is an account of results in US20250171420A1 (Monte Rosa Therapeutics, Inc., priority 2022, published 2025).

In data set [1] the target is T1, CK1α (Homo sapiens, UniProt P48729).
T1 construct: HEK293 clonal lines with CRISPR KI HiBiT tag on CSNK1A1
Kind of data set: CK1α NanoBit Assay (HiBiT-tagged CSNK1A1, HEK293 clonal lines). The format is cell-based. The following applies: HEK293 HiBiT-CSNK1A1/LgBiT cells, 24 h incubation. An outline of the steps: (§1)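 HEK293 clones carrying a CRISPR knock-in HiBiT tag on CSNK1A1 and stably expressing LgBiT are treated with compound for 24 hours at 37° C, 5% CO2, then read by luminescence. Response is normalized as 100*(S−N)/(P−N) against plate negative and positive controls, and DC50 values are derived.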

Data set [2] is described as follows: Oral pharmacokinetics in male BALB/c mice. The format is in vivo. Particulars: mouse, plasma, mean ± SD. Here is the method:
Male BALB/c mice were administered a discrete, oral (PO) dose of Compound 288, Compound 335, Compound 102, or Compound 303 at 10 mg/kg; all mice were fasted except for mice that were dosed with Compound 288. Male BALB/c mice were fasted overnight and administered a cassette dose, PO dose of Compound 303 and other compounds at 5 mg/kg per compound.
Blood samples were collected serially from three animals/time-point following PO administration of the test compounds to the mice and placed in tubes containing K2EDTA. The blood samples were centrifuged, and the aliquots of the resulting plasma stored frozen at −60 to −90° C.
The plasma samples were analyzed by LC-MS/MS to determine concentrations of the test compounds. The in-life portion of the study and the bioanalysis of plasma samples was conducted at Wuxi (China).
The pharmacokinetic parameters for the tested compounds were calculated by non-compartmental analysis using Phoenix WinNonlin software.

A further data set concerns the target CRBN/DDB1 (Homo sapiens, UniProt Q96SW2). Briefly: HTRF binding assay (displacement of Cy5-thalidomide probe from CRBN/DDB1). The gist of the method: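 HTRF displacement of Cy5-thalidomide (100 nM) from His-tagged CRBN/DDB1 (2.5 nM) with anti-His Tb cryptate in 20 mM HEPES, 20 mM NaCl, 0.2 mM TCEP, 0.2 mM EDTA, 0.005% Tween20. 10-point 1:3 series, 30 min ambient. 665/620 nm ratio fitted 4-parameter for IC50; Ki by Cheng-Prusoff from geometric-mean IC50.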

The subject of a further data set is GP2D cell line. Briefly: Growth inhibition, CyQUANT Direct Cell Proliferation Assay, GP2D. Particulars: GP2D, 120 to 168 hours; read-out: GP2D GI50. Format: cell-based. The gist of the method:
(§2)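 Cells seeded 300 to 1,800 per well, day-0 CyQUANT Direct read after overnight attachment; 9-point 3-fold dilutions from 30 μM top concentration, 120 to 168 h exposure, 0.3% DMSO control. Fluorescence Ex/Em 480/520 nm; growth inhibition normalised to day-0 and untreated day-N signals, GI50 at 50% of untreated control.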

Another data set has as its system SKCO1 cell line. Kind of data set: Growth inhibition, CyQUANT Direct Cell Proliferation Assay, SKCO1. The following applies: Homo sapiens, SK-CO-1; SKCO1, 120 to 168 hours; read-out: SKCO1 GI50. The format is cell-based. The gist of the method:
as §2

For another data set, the system named is LS174T cell line. Briefly: Growth inhibition, CyQUANT Direct Cell Proliferation Assay, LS174T. The format is cell-based. The following applies: Homo sapiens, 120 to 168 hours, read-out: LS174T GI50. An outline of the steps:
as §2

The test system of another data set is CW2 cell line. Kind of data set: Growth inhibition, CyQUANT Direct Cell Proliferation Assay, CW2. Particulars: Homo sapiens, CW-2; CW2, 120 to 168 hours; read-out: CW2 GI50. Format: cell-based. An outline of the steps: as §2
In another data set the test system is LS180 cell line. Briefly: Growth inhibition, CyQUANT Direct Cell Proliferation Assay, LS180. The format is cell-based. Particulars: Homo sapiens; LS180, 120 to 168 hours; read-out: LS180 GI50. An outline of the steps:
as §2

Data set [3] deals with T2, CK1α (Homo sapiens, UniProt P48729+Q96SW2).
T2 construct: HEK293 clonal lines with CRISPR KI HiBiT tag on CSNK1A1
T2 sequence (P48729 whole entry): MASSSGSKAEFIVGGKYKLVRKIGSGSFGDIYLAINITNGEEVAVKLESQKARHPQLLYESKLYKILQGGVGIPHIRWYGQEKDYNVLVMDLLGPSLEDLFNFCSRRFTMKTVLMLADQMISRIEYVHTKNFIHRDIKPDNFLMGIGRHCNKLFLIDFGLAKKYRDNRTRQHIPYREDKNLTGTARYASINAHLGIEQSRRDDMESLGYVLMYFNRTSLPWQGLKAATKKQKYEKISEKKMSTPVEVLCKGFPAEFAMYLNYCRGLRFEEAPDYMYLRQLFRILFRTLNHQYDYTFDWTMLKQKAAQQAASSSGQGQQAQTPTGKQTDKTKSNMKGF
T2 sequence (Q96SW2 whole entry): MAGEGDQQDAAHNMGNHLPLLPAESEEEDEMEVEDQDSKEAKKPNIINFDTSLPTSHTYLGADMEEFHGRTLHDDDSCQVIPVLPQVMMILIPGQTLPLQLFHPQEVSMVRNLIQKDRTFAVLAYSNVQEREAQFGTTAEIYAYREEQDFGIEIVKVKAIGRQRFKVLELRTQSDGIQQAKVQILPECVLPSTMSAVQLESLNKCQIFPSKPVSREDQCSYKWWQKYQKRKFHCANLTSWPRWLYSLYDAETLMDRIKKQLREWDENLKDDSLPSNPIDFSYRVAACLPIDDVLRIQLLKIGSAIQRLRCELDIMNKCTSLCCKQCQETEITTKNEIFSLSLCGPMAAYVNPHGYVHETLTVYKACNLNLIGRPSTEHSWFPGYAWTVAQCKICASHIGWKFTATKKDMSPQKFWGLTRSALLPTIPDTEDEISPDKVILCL
T2 sequence (Q16531 2-1140 partner limits assumed): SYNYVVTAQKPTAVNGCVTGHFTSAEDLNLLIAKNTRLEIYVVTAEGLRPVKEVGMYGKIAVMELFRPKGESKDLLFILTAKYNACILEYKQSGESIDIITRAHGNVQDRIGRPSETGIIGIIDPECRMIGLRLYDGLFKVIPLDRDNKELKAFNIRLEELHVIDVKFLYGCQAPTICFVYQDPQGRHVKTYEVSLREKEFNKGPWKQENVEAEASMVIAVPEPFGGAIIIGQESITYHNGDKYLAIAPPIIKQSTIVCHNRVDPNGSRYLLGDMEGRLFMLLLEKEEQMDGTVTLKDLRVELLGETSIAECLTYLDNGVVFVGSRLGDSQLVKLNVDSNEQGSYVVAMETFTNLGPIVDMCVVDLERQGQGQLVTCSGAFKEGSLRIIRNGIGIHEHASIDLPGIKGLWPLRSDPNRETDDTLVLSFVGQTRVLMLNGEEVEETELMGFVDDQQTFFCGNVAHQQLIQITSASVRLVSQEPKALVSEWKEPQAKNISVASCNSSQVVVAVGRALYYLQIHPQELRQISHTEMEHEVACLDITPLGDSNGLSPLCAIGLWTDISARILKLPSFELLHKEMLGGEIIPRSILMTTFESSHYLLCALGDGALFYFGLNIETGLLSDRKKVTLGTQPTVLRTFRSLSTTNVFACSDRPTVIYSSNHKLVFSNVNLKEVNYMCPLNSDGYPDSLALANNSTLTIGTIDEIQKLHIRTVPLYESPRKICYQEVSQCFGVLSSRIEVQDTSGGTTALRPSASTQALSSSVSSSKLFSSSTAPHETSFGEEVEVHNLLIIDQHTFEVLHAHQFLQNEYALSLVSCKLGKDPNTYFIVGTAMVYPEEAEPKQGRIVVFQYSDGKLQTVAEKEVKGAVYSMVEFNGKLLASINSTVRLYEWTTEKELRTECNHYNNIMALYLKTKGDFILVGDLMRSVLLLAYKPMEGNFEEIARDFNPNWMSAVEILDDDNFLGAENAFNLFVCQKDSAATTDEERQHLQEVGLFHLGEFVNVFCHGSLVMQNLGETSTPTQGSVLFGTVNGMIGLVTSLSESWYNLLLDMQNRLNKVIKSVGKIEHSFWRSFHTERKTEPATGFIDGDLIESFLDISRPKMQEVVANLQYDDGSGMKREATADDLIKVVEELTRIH
Briefly: CK1α NanoBit Assay (HiBiT-tagged CSNK1A1, HEK293 clonal lines). The following applies: read-out: CK1α DC50 (μM) 24 h; HEK293 HiBiT-CSNK1A1/LgBiT cells, 24 h incubation. Format: cell-based. The gist of the method:
as §1
(In general: HiBiT is a short tag that completes a luciferase, so light tracks the accessible tagged protein.)

[4] abbreviates: CRBN/DDB1 2.5 nM, Cy5-Thalidomide 100 nM, 30 min, geometric mean, read-out: HTRF_Thali_Disp_DR_geo_IC50.

Where two headings read alike, the source gives them in different places.

CRBN/DDB1, sequence (Q96SW2 whole entry, species assumed): as the sequence (Q96SW2 whole entry) above
CRBN/DDB1, sequence (Q16531 whole entry partner, species assumed): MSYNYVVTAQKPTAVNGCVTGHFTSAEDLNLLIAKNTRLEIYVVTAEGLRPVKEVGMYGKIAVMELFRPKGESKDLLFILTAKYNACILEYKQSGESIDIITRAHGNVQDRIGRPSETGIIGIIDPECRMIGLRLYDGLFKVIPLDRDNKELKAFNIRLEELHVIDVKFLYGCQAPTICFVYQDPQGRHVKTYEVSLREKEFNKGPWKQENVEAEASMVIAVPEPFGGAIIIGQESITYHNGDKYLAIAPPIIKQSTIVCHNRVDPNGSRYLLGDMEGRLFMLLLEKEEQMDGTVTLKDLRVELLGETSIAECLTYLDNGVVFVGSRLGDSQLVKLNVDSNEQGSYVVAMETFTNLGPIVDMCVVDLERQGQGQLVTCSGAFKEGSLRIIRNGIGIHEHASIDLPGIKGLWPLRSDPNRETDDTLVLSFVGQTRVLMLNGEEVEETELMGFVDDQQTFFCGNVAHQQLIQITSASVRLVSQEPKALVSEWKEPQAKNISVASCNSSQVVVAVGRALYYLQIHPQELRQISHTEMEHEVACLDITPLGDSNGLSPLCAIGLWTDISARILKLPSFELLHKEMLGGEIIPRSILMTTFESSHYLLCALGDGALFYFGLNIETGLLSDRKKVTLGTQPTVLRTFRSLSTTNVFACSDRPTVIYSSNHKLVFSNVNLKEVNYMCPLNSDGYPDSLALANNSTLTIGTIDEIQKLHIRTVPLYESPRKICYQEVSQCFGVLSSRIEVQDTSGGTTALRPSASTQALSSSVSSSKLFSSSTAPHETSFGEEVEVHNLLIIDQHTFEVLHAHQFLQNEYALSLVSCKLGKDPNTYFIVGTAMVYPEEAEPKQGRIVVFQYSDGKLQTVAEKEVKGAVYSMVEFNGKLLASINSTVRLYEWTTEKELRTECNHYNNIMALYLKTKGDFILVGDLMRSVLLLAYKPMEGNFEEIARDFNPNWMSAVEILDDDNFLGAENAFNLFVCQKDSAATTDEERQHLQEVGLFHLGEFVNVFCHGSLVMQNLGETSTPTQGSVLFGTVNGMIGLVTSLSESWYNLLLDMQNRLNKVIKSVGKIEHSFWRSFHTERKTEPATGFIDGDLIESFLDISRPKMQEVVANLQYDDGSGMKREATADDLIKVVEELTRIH
T1 sequence (P48729 whole entry): as the sequence (P48729 whole entry) above
T1 sequence (Q96SW2 whole entry, further chain): as the sequence (Q96SW2 whole entry) above
T1 sequence (Q16531 2-1140 partner limits assumed): as the sequence (Q16531 2-1140 partner limits assumed) above

As a reminder, the AUC is concentration integrated over time. Lower therefore signals less exposure. One may read the AUC(0-t) as exposure summed from dosing to a finite time, without extrapolation to infinity. The Cmax is the maximum level reached in the sampled fluid or tissue. The term Tmax denotes the time from dosing to the highest level. The term half-life denotes the time needed for the level to fall by half in the phase considered. `COCC1c2ccc(C3CC3)cc2CN1C(=O)Nc1ccc2c(c1)CN(C1CCC(=O)NC1=O)C2=O` (centres unmarked) [Compound 335, 5-cyclopropyl-N-(2-(2,6-dioxopiperidin-3-yl)-1-oxoisoindolin-5-yl)-1-(methoxymethyl)isoindoline-2-carboxamide] had a DC50 at CK1α [1] of under 0.1 µM. Besides, in [2] (PO 10 mg/kg), the AUC was 13400 ± 696 ng·h/mL, the AUC(0-t) came to 13300 ± 694 ng·h/mL, the Cmax turned out to be 10600 ± 697 ng/mL and the Tmax came out at 15 min. Besides, the half-life in [2] (PO 10 mg/kg) was 64.8 ± 2.4 min. The IC50 at CRBN/DDB1 (setting [4]) was in the range of 100 to 1000 nM.
Regarding `COC[C@H]1Cc2c(F)cccc2N1C(=O)Nc1ccc2c(c1)CN(C1CCC(=O)NC1=O)C2=O` (stereo partly drawn) [Compound 303, (2R)—N-(2-(2,6-dioxopiperidin-3-yl)-1-oxoisoindolin-5-yl)-4-fluoro-2-(methoxymethyl)indoline-1-carboxamide], the DC50 at CK1α [1] is under 0.1 µM. In [2] (PO 5 mg/kg (cassette dose)), the AUC was determined as 12700 ± 1760 ng·h/mL, the AUC(0-t) was found to be 12300 ± 1710 ng·h/mL, the Cmax turned out to be 7790 ± 1060 ng/mL and the Tmax amounted to 30 min. Moreover, the half-life in data set [2] (PO 5 mg/kg (cassette dose)) is 90.6 ± 13.2 min. The IC50 on CRBN/DDB1 (setting [4]) fell in the range of 100 to 1000 nM.
The term GI50 denotes the concentration that inhibits growth by half. Compound `COC[C@@H]1Cc2ccccc2N1C(=O)Nc1ccc2c(c1)CN(C1CCC(=O)NC1=O)C2=O` (stereo partly drawn) [Compound 288, (2S)—N-(2-(2,6-dioxopiperidin-3-yl)-1-oxoisoindolin-5-yl)-2-(methoxymethyl)indoline-1-carboxamide] gave a DC50 at CK1α [1] of under 0.1 µM. For the same compound, the GI50 with GP2D cell line is 100 to 1000 nM. Moreover, in data set [2] (PO 10 mg/kg), the AUC is 29700 ± 2450 ng·h/mL, the area under the curve AUC(0-t) turned out to be 29600 ± 2460 ng·h/mL, the peak level (Cmax) was 6870 ± 761 ng/mL and the Tmax came to 49.8 ± 17.4 min. Moreover, the half-life in data set [2] (PO 10 mg/kg) is 163 ± 29.4 min. Moreover, in the data set on SKCO1 cell line, the GI50 was under 100 nM. Besides, at CRBN/DDB1 (setting [4]), the IC50 lay within 100 to 1000 nM. Moreover, the 50% growth inhibitory concentration (GI50) in the data set with LS174T cell line lay in the range of 100 to 1000 nM. Besides, in the data set with CW2 cell line, the GI50 was under 100 nM. The GI50 with LS180 cell line is 100 to 1000 nM.
For the compound `CC(C)(C)C1CN(C(=O)Nc2ccc3c(c2)CN(C2CCC(=O)NC2=O)C3=O)c2ccccc21` (centres unmarked) [Compound 187, 3-(tert-butyl)-N-(2-(2,6-dioxopiperidin-3-yl)-1-oxoisoindolin-5-yl)indoline-1-carboxamide], on CK1α [3], the DC50 was under 0.1 µM. Further, at CRBN/DDB1, the IC50 fell in the range of 100 to 1000 nM.
In turn, `O=C1CCC(N2Cc3cc(NC(=O)N4CCc5cc(C6CC6)ccc54)ccc3C2=O)C(=O)N1` (centres unmarked) [Compound 348, 5-cyclopropyl-N-(2-(2,6-dioxopiperidin-3-yl)-1-oxoisoindolin-5-yl)indoline-1-carboxamide] came in with a DC50 at CK1α [1] of under 0.1 µM. Besides, the GI50 in the data set with GP2D cell line, in the data set on SKCO1 cell line, in the data set with LS174T cell line, in the data set with CW2 cell line and in the data set on LS180 cell line was under 100 nM in each case. The IC50 at CRBN/DDB1 (setting [4]) is 100 to 1000 nM.
